Assay results from patent US20060083754A1, “Pharmaceutical combinations comprising corticoids and immunosuppressants for treating corticoid- and/or calcineurin inhibitors-resistant diseases” (priority 2003, published 2006).

Key:
[1] = system: human peripheral blood mononuclear cells (PBMC); experiment: T-cell proliferation assay (BrdU ELISA), PBMC stimulated with anti-CD3 mAb + anti-CD28 mAb; format: cell-based; conditions: anti-CD3 mAb (0.1 μg/ml)+anti-CD28 mAb (1 μg/ml); for inhibition at 0.03 µM: Homo sapiens, PBMC
[2] = system: human peripheral blood mononuclear cells (PBMC); experiment: T-cell proliferation assay (BrdU ELISA), PBMC stimulated with SEB; format: cell-based; conditions: SEB (0.1 μg/ml); for inhibition at 0.03 µM: Homo sapiens, PBMC
[3] = Example 6, 200000 cells/well, DEX 300 nM, ASM 30 nM, BETA 300 nM
[4] = Example 7, 100000 cells/well, DEX 300 nM, ASM 30 nM, BETA 300 nM
[5] = Example 8, 50000 cells/well, DEX 300 nM, ASM 30 nM, BETA 300 nM
[6] = Example 11, 100000 cells/well, DEX 300 nM, ASM 30 nM
[7] = Example 9, 200000 cells/well, DEX 300 nM, ASM 30 nM, BETA 300 nM
[8] = Example 10, 100000 cells/well, DEX 300 nM, ASM 30 nM, BETA 300 nM
[9] = Example 12, 100000 cells/well, DEX 300 nM, ASM 30 nM
[10] = Example 1, 200000 cells/well, HC 10 μM, ASM 30 nM, BETA 300 nM
[11] = Example 2, 100000 cells/well, HC 10 μM, ASM 30 nM, BETA 300 nM
[12] = Example 3, 50000 cells/well, HC 10 μM, ASM 30 nM, BETA 300 nM
[13] = Example 4, 200000 cells/well, HC 10 μM, ASM 30 nM, BETA 300 nM
[14] = Example 5, 100000 cells/well, HC 10 μM, ASM 30 nM, BETA 300 nM

SMILES: C[C@@H]1C[C@H]2[C@@H]3CCC4=CC(=O)C=C[C@]4(C)[C@@]3(F)[C@@H](O)C[C@]2(C)[C@@]1(O)C(=O)CO [DEX, dexamethasone]
- Normalized OD (% STIM-C) [1, 3]: 87.2 % STIM-C
- Normalized OD (% STIM-C) [1, 4]: 76.5 % STIM-C
- Normalized OD (% STIM-C) [1, 5]: 82.2 % STIM-C
- Normalized OD (% STIM-C) [1, 6]: 76.3 % STIM-C
- Normalized OD (% STIM-C) ([1]; Example 15, 200000 cells/well, DEX 300 nM, FK 30 nM, BETA 300 nM): 87.2 % STIM-C
- Normalized OD (% STIM-C) ([1]; Example 16, 100000 cells/well, DEX 300 nM, FK 30 nM, BETA 300 nM): 76.5 % STIM-C
- Normalized OD (% STIM-C) ([1]; Example 17, 50000 cells/well, DEX 300 nM, FK 30 nM, BETA 300 nM): 82.2 % STIM-C
- Normalized OD (% STIM-C) ([1]; Example 18, 100000 cells/well, DEX 300 nM, FK 30 nM): 76.3 % STIM-C
- Normalized OD (% STIM-C) ([1]; Example 23, 200000 cells/well, DEX 300 nM, CsA 300 nM, BETA 300 nM, DEX (300 nM)+CsA (30 nM), BETA (300 nM)+CsA (300 nM)): 87.2 % STIM-C
- Normalized OD (% STIM-C) ([1]; Example 24, 100000 cells/well, DEX 300 nM, CsA 300 nM, BETA 300 nM, DEX (300 nM)+CsA (30 nM), BETA (300 nM)+CsA (300 nM)): 76.5 % STIM-C
- Normalized OD (% STIM-C) ([1]; Example 25, 50000 cells/well, DEX 300 nM, CsA 300 nM, BETA 300 nM, DEX (300 nM)+CsA (30 nM), BETA (300 nM)+CsA (300 nM)): 82.2 % STIM-C
- Normalized OD (% STIM-C) ([1]; Example 27, 100000 cells/well, DEX 300 nM, CsA 300 nM): 76.3 % STIM-C
- Normalized OD (% STIM-C) [2, 7]: 101.5 % STIM-C
- Normalized OD (% STIM-C) [2, 8]: 86.4 % STIM-C
- Normalized OD (% STIM-C) [2, 9]: 105.7 % STIM-C
- Normalized OD (% STIM-C) ([2]; Example 26, 200000 cells/well, DEX 300 nM, CsA 300 nM, BETA 300 nM, DEX (300 nM)+CsA (30 nM), BETA (300 nM)+CsA (300 nM)): 101.5 % STIM-C

SMILES: CC[C@@H]1/C=C(\C)C[C@H](C)C[C@H](OC)[C@H]2O[C@@](O)(C(=O)C(=O)N3CCCC[C@H]3C(=O)O[C@H](/C(C)=C/[C@@H]3CC[C@H](Cl)[C@H](OC)C3)[C@H](C)[C@@H](O)CC1=O)[C@H](C)C[C@@H]2OC [ASM, 33-epi-33-chloro-FR 520]
- Normalized OD (% STIM-C) [1, 10]: 93.9 % STIM-C
- OD [1, 10]: 0.721
- Normalized OD (% STIM-C) [1, 11]: 85.1 % STIM-C
- OD [1, 11]: 0.776
- Normalized OD (% STIM-C) [1, 12]: 113.2 % STIM-C
- OD [1, 12]: 0.994
- Normalized OD (% STIM-C) [1, 3]: 98.0 % STIM-C
- OD [1, 3]: 0.772
- Normalized OD (% STIM-C) [1, 4]: 87.4 % STIM-C
- OD [1, 4]: 0.734
- Normalized OD (% STIM-C) [1, 5]: 86.2 % STIM-C
- OD [1, 5]: 0.908
- Normalized OD (% STIM-C) [1, 6]: 79.1 % STIM-C
- OD [1, 6]: 0.918
- inhibition at 0.03 µM [1, 10]: 6.7%
- inhibition at 0.03 µM [1, 11]: < 17%
- inhibition at 0.03 µM [1, 12]: -14.3%
- inhibition at 0.03 µM [1, 4]: < 25%
- inhibition at 0.03 µM [1, 5]: < 26%
- inhibition at 0.03 µM [1, 6]: < 25%
- Normalized OD (% STIM-C) [2, 13]: 95.8 % STIM-C
- OD [2, 13]: 1.015
- Normalized OD (% STIM-C) [2, 14]: 78.1 % STIM-C
- OD [2, 14]: 0.665
- Normalized OD (% STIM-C) [2, 7]: 83.1 % STIM-C
- OD [2, 7]: 0.752
- Normalized OD (% STIM-C) [2, 8]: 67.3 % STIM-C
- OD [2, 8]: 0.660
- Normalized OD (% STIM-C) [2, 9]: 77.5 % STIM-C
- OD [2, 9]: 1.013
- inhibition at 0.03 µM [2, 14]: < 24%
- inhibition at 0.03 µM [2, 7]: < 19%
- inhibition at 0.03 µM [2, 8]: < 34%
- inhibition at 0.03 µM [2, 9]: < 24%
